Assay results as given in patent US4327097A, “Novel penicillins” (Toyama Chemical Co., Ltd., priority 1974, dated 1982).
Converted amounts (≈) assume the structure as drawn.

Experiments:
Assay type in all cases: cell-based
[1] = tested on: Escherichia coli NIHJ; experiment: MIC, plate method, standard strains; conditions: Table 3, standard strain; unit assumed
Experimental: (§1) The minimum inhibitory concentration (MIC) was determined by the plate method disclosed in "Chemotherapy" (Japan), Vol. 16, (1968), pages 98-99. The culture medium used was a Heart infusion agar (pH 7.4). The number of the cells per plate used in the inoculum was 10^4 (10^6 cells/ml).

[2] = tested on: Staphylococcus aureus 209p; experiment: MIC, plate method, standard strains; conditions: Table 3, standard strain, Heart infusion agar pH 7.4; unit assumed
Experimental: as §1

[3] = tested on: Proteus vulgaris 3027; experiment: MIC, plate method, standard strains; conditions: Table 3, standard strain; unit assumed
Experimental: as §1

[4] = tested on: Pseudomonas aeruginosa; experiment: MIC against clinical isolates; conditions: unit assumed
[5] = tested on: Klebsiella pneumoniae; experiment: MIC, plate method, standard strains; conditions: Table 3, standard strain; unit assumed
Experimental: as §1

[6] = tested on: Pseudomonas aeruginosa I.F.O.; experiment: MIC, plate method, standard strains; conditions: Table 3, standard strain; unit assumed
Experimental: as §1

[7] = tested on: Staphylococcus aureus; experiment: MIC against clinical isolates; conditions: Table 5-1, clinical isolate; unit assumed
[8] = tested on: Shigella flexneri; experiment: MIC against clinical isolates; conditions: Table 5-5, clinical isolate; unit assumed
Experimental: as §1
(§2) MIC was determined in the same manner as in the preceding paragraph (1).

[9] = tested on: Shigella sonnei; experiment: MIC against clinical isolates; conditions: Table 5-5, clinical isolate; unit assumed
Experimental: as §1, §2

[10] = tested on: Escherichia coli; experiment: MIC against clinical isolates; conditions: Table 5-2, clinical isolate; unit assumed
[11] = tested on: Klebsiella pneumoniae; experiment: MIC against clinical isolates; conditions: Table 5-4, clinical isolate; unit assumed

`CC1(C)SC2C(NC(=O)C(NC(=O)N3CCN(C4CCCC4)C(=O)C3)c3ccccc3)C(=O)N2C1C(=O)O` (single isomer, unassigned) [Compound 32] showed an MIC Esche--richin coil NIHJ [1] of less than 1.57 µg/mL and an MIC Staphylococcus aureus 209p [2] of less than 1.57 µg/mL.

With `CC(=O)OCCN1CCN(C(=O)NC(C(=O)NC2C(=O)N3C2SC(C)(C)C3C(=O)O)c2ccccc2)C(=O)C1=O` (single isomer, unassigned) [Compound 41] the MIC Esche--richin coil NIHJ [1] was less than 1.57 µg/mL, the MIC Staphylococcus aureus 209p [2] was less than 1.57 µg/mL and the MIC Proteus vulgaris 3027 [3] was less than 1.57 µg/mL.

With `C=CCN1CCN(C(=O)NC(C(=O)NC2C(=O)N3C2SC(C)(C)C3C(=O)O)c2ccccc2)C(=O)C1=O` (single isomer, unassigned) [Compound 42] the MIC Esche--richin coil NIHJ [1] was less than 1.57 µg/mL and the MIC Proteus vulgaris 3027 [3] was less than 1.57 µg/mL.

`CC1(C)SC2C(NC(=O)C(NC(=O)N3CCN(c4ccccc4)C(=O)C3=O)c3ccccc3)C(=O)N2C1C(=O)O` (single isomer, unassigned) [Compound 43] gave an MIC Esche--richin coil NIHJ [1] of less than 1.57 µg/mL, an MIC Staphylococcus aureus 209p [2] of less than 1.57 µg/mL and an MIC Proteus vulgaris 3027 [3] of less than 1.57 µg/mL.

Molecule `CC(=O)OCC1=C(C(=O)O)N2C(=O)C(NC(=O)C(NC(=O)N3CCN(C)C(=O)C3=O)c3ccccc3)C2SC1` (single isomer, unassigned) [Compound No. 60] has an MIC Pseudomonas aeruginosa GN4 ([4]; Table 6-3, clinical isolate) of 50 µg/mL (≈ 89.4 µM), an MIC Pseudomonas aeruginosa GN 82 ([4]; Table 6-3, clinical isolate) of 50 µg/mL (≈ 89.4 µM) and an MIC Pseudomonas aeruginosa GN 376 ([4]; Table 6-3, clinical isolate) of 50 µg/mL (≈ 89.4 µM). It also gave an MIC Pseudomonas aeruginosa GN 2987 ([4]; Table 6-3, clinical isolate) of 50 µg/mL (≈ 89.4 µM).

`Cc1nnc(SCC2=C(C(=O)O)N3C(=O)C(NC(=O)C(NC(=O)N4CCN(C)C(=O)C4=O)c4ccccc4)C3SC2)s1` (single isomer, unassigned) [Compound No. 62] was tested, and the MIC Pseudomonas aeruginosa GN4 ([4]; Table 6-3, clinical isolate) was 100 µg/mL (≈ 158 µM), the MIC Pseudomonas aeruginosa GN 82 ([4]; Table 6-3, clinical isolate) was 100 µg/mL (≈ 158 µM) and the MIC Pseudomonas aeruginosa GN 376 ([4]; Table 6-3, clinical isolate) was 100 µg/mL (≈ 158 µM). The MIC Pseudomonas aeruginosa GN 2565 ([4]; Table 6-3, clinical isolate) was 100 µg/mL (≈ 158 µM).

`CN1CCN(C(=O)NC(C(=O)NC2C(=O)N3C2SC(C)(C)C3C(=O)O)c2ccc(O)cc2)C(=O)C1=O` (single isomer, unassigned) [compound 48] showed an MIC Esche--richin coil NIHJ [1] of less than 0.4 µg/mL, an MIC Staphylococcus aureus 209p [2] of less than 0.4 µg/mL and an MIC Proteus vulgaris 3027 [3] of less than 0.4 µg/mL.

For `CN1CCN(C(=O)N[C@@H](C(=O)N[C@@H]2C(=O)N3[C@@H]2SC(C)(C)[C@@H]3C(=O)OC2OC(=O)c3ccccc32)c2ccccc2)C(=O)C1=O` (single isomer, unassigned) [compound 49], the MIC Staphylococcus aureus 209p [2] was less than 0.4 µg/mL.

`COCOC(=O)C1N2C(=O)C(NC(=O)C(NC(=O)N3CCN(C)C(=O)C3=O)c3ccccc3)C2SC1(C)C` (single isomer, unassigned) [compound 50] showed an MIC Esche--richin coil NIHJ [1] of less than 0.79 µg/mL, an MIC Staphylococcus aureus 209p [2] of less than 0.79 µg/mL and an MIC Proteus vulgaris 3027 [3] of less than 0.79 µg/mL.

Molecule `CCCCCCCCN1CCN(C(=O)NC(C(=O)NC2C(=O)N3C2SC(C)(C)C3C(=O)OCOC)c2ccccc2)C(=O)C1=O` (single isomer, unassigned) [compound 51] has an MIC Esche--richin coil NIHJ [1] of less than 0.4 µg/mL, an MIC Klebsiella pneumoniae [5] of less than 0.4 µg/mL and an MIC Staphylococcus aureus 209p [2] of less than 0.4 µg/mL. For the same molecule, the MIC Proteus vulgaris 3027 [3] was less than 0.4 µg/mL.

Work on `CN1CCN(C(=O)NC(C(=O)NC2C(=O)N3C2SC(C)(C)C3C(=O)OCCN2CCCCC2)c2ccccc2)C(=O)C1=O` (single isomer, unassigned) [compound 53] yielded an MIC Esche--richin coil NIHJ [1] of less than 0.4 µg/mL.

In the case of `CC1(C)S[C@@H]2[C@H](NC(=O)[C@H](NC(=O)N3CCN(C(=O)c4ccc(Cl)cc4)CC3=O)c3ccccc3)C(=O)N2[C@H]1C(=O)O` [Compound 8], the MIC Pseudomonas aeruginosa I.F.C [6] is reported as 100 µg/mL (≈ 163 µM) and the MIC Proteus vulgaris 3027 [3] is reported as 3.13 µg/mL (≈ 5.1 µM).

Molecule `CCCCCCN1CCN(C(=O)N[C@@H](C(=O)N[C@@H]2C(=O)N3[C@@H]2SC(C)(C)[C@@H]3C(=O)O)c2ccccc2)C(=O)C1` [Compound 13] has an MIC Staphylococcus aureus F-1 [7] of 12.5 µg/mL (≈ 22.3 µM), an MIC Staphylococcus aureus F-2 [7] of 1.57 µg/mL (≈ 2.81 µM) and an MIC Staphylococcus aureus F-4 [7] of 6.25 µg/mL (≈ 11.2 µM). It also gave an MIC Staphylococcus aureus MS 8588 [7] of 3.13 µg/mL (≈ 5.59 µM), an MIC Staphylococcus aureus MS 8596 [7] of 3.13 µg/mL (≈ 5.59 µM) and an MIC Staphylococcus aureus MS 8684 [7] of 3.13 µg/mL (≈ 5.59 µM). For the same molecule, the MIC Staphylococcus aureus MS 8713 [7] was 3.13 µg/mL (≈ 5.59 µM), the MIC Shigella flexneri JS 11215 [8] was 12.5 µg/mL (≈ 22.3 µM) and the MIC Shigella flexneri JS 11839 [8] was 1.57 µg/mL (≈ 2.81 µM). The MIC Shigella sonnei JS 11232 [9] was 12.5 µg/mL (≈ 22.3 µM), the MIC Shigella sonnei JS 11755 [9] was 3.13 µg/mL (≈ 5.59 µM) and the MIC Esche--richin coil NIHJ [1] was less than 1.57 µg/mL. The MIC Klebsiella pneumoniae [5] was less than 1.57 µg/mL, the MIC Staphylococcus aureus 209p [2] was less than 1.57 µg/mL and the MIC Proteus vulgaris 3027 [3] was less than 1.57 µg/mL. It also gave an MIC Pseudomonas aeruginosa GN 2987 ([4]; Table 5-3, clinical isolate) of 12.5 µg/mL (≈ 22.3 µM), an MIC Escherichia coli GN 3435 [10] of 3.13 µg/mL (≈ 5.59 µM) and an MIC Escherichia coli GN 3452 [10] of 3.13 µg/mL (≈ 5.59 µM). For the same molecule, the MIC Escherichia coli GN 3481 [10] was 6.25 µg/mL (≈ 11.2 µM), the MIC Escherichia coli K-1 [10] was 3.13 µg/mL (≈ 5.59 µM) and the MIC Escherichia coli K-2 [10] was 6.25 µg/mL (≈ 11.2 µM). The MIC Escherichia coli K-4 [10] was 6.25 µg/mL (≈ 11.2 µM), the MIC Klebsiella pneumoniae GN 917 [11] was 12.5 µg/mL (≈ 22.3 µM) and the MIC Klebsiella pneumoniae GN 3850 [11] was 6.25 µg/mL (≈ 11.2 µM).
